This is an account of results in US20250282819A1, “MITOCHONDRIA-[…] PEPTIDE THAT CAN BE […] DELIVERED AT NANOMOLAR CONCENTRATION, AND USE THEREOF” (CAMP THERAPEUTICS INC., priority 2021, published 2025).

Where a SMILES comes first, the peptide text is derived from it. [ ]: non-standard residue; d: D form. Cha = N[C@@H](CC1CCCCC1)C(=O)O

Data set [1] deals with HeLa cells. In words: Relative cytotoxicity, number of cells normally attached. The settings on record: 100 nM, 3 hours.
Method: The relative cytotoxicity of the dimeric bundle peptides according to the present disclosure was compared and analyzed. For this purpose, 1×10^5 HeLa cells were treated with 100 nM of each peptide for 3 hours, washed three times with PBS, and then resuspended in PBS. After 30 minutes, five random photographs of each sample were taken under a light microscope to measure the number of cells normally attached to the cell culture dish.
Data set [2] has as its system HeLa cells. In words: Co-localization with endosome, lysosome and cardiolipin (NAO) markers. The format is cell-based. Conditions: HeLa cells expressing CellLight early endosomes-GFP, 100 nM 3 hours. As for the experimental part: Next, to investigate whether mitochondrial damage affects the amount of peptide present in lysosomes, cardiolipin-specific targeting was investigated using NAO in the presence or absence of CCCP.
For microscopic observation, HeLa cells were cultured in glass-bottom dishes (SPL, 200350, Korea). The cells were then treated with peptides for 3 hours and stained with MitoTracker™ (Thermo Fisher Scientific, A1372, USA; 100 nM, 1 hr), nonyl acridine orange (NAO; Thermo Fisher Scientific, A1372; 100 nM, 1 hr), Hoechst 33342 ([…], 20 min), CellLight™ early endosomes-GFP (Thermo Fisher Scientific, C10586; […], 16 hr), and/or LysoTracker™ (Thermo Fisher Scientific, L7525; 50 nM, 30 min). The cells were then rinsed with PBS and HBSS was added thereto. Images of the stained cells were obtained using a microscope (Zeiss LSM 880 and ELYRA PS.1). To generate ultra-high resolution images, a structured illumination process was performed with ZEN Black software. Pearson r values were calculated by using ImageJ software.

Data set [3] has as its system HeLa cells. In words: Preferential binding to CCCP-damaged mitochondria, confocal microscopy. The format is cell-based. Conditions: 100 nM 3 hours, 20 μM CCCP.
Method: To damage mitochondria, treatment with carbonyl cyanide m-chlorophenyl hydrazone (CCCP) at a concentration of 20 μM was performed for 30 minutes.
For microscopic observation, HeLa cells were cultured in glass-bottom dishes (SPL, 200350, Korea). The cells were then treated with peptides for 3 hours and stained with MitoTracker™ (Thermo Fisher Scientific, A1372, USA; 100 nM, 1 hr), nonyl acridine orange (NAO; Thermo Fisher Scientific, A1372; 100 nM, 1 hr), Hoechst 33342 (1 g/mL, 20 min), CellLight™ early endosomes-GFP (Thermo Fisher Scientific, C10586; 2 L/10,000 cells, 16 hr), and/or LysoTracker™ (Thermo Fisher Scientific, L7525; 50 nM, 30 min). The cells were then rinsed with PBS and HBSS was added thereto. Images of the stained cells were obtained using a microscope (Zeiss LSM 880 and ELYRA PS.1). To generate ultra-high resolution images, a structured illumination process was performed with ZEN Black software. Pearson r values were calculated by using ImageJ software.
Data set [4] relates to HeLa cells. The settings on record: HeLa cells pretreated 3 hours; H2O2, antimycin A, or CCCP. As for the experimental part:
(§1) 2×10^4 HeLa cells were seeded in a 96-well plate 24 hours before the experiment. The cells were then stained with MitoSOX™ (Thermo Fisher Scientific, M36008; 5 μM, 10 min) or tetramethylrhodamine ethyl ester (TMRE; Sigma, 87917; 600 nM, 15 min). The cells were washed with PBS, and HBSS was added thereto. Fluorescence signal of the cells was measured with a microplate reader (TECAN) at 37° C. (MitoSox, Ex/Em=510/580 nm; TMRE, Ex/Em=525/575 nm).

The test system of data set [5] is HeLa cells. Conditions: 10 or 30 nM 3 hours, then H2O2 for 1 hour. How it is done:
The membrane potential of mitochondria was measured according to the method described in Experimental Example 7.
as §1

Data set [6] relates to HeLa cells. In words: ATP levels in damaged cells pretreated with peptide. The format is cell-based. The settings on record: HeLa cells pretreated 3 hours; H2O2, antimycin A, or CCCP. As for the experimental part: The relative ATP levels of cells were compared by fluorescence intensity according to the method described in Experimental Example 8, and mitochondrial damage was induced by treatment with two different mitochondrial damaging agents (1 μM of antimycin A or 1 mM of H2O2).
Cellular ATP levels were assessed using an ATP detection kit (Abcam, ab113849, USA) according to the manufacturer's instructions. Fluorescence luminescence was measured with a microplate reader (Promega, Glomax 96 microplate luminometer, USA).

Data set [7] deals with HeLa cells. The settings on record: observed for 4 hours.
For data set [8], the system named is HeLa cells. In words: Co-localization with Drp1-eGFP. The format is cell-based. The settings on record: HeLa cells transfected with Drp1-eGFP.
Method: Wild-type Drp1 cDNA (kindly provided by Dr. Sunyong Chung, Ajou University School of Medicine) was amplified by polymerase chain reaction and inserted into the N-terminus of the eGFP gene in the pcDNA3.1-plasmid. Transfection of the plasmid was performed using Lipofectamine™ 3000 (Thermo Fisher Scientific, L3000001) according to the manufacturer's instructions.
In data set [9] the test system is HeLa cells. Conditions: EC50 concentration 3 hours, 0.5 mM H2O2.
Method: Subsequently, after treatment with 0.5 mM of H2O2, the fluorescence was detected and imaged by confocal microscopy. The fluorescence intensity of the cells was calculated with an image analysis program (ZEN blue).
Then, the cells were stained with 2′,7′-dichlorofluorescin diacetate (H2DCFDA; Sigma, 287810, USA; 25 μM, 30 min) and washed twice with PBS. The cells were treated with 500 μM H2O2 in HBSS and incubated for an additional 10 minutes. DCF signal of the cells was detected by confocal microscope and an image thereof was taken. Green signal intensity of each image was calculated using ZEN blue software.
For data set [10], the system named is HeLa cells. The format is cell-based. The settings on record: for level of EC50 value (cell-penetrating ability): comparison of CMP3013, LR10, MPP1a, SS-31. How it is done:
Cell-penetrating ability was evaluated using the fluorescently-labeled versions of the dimeric bundle peptides synthesized in Example 3, and measured as EC50 values according to the method described in Experimental Example 3.
1×10^5 HeLa cells were seeded into a 24-well plate. After 24 hours, the peptide was added to the cells and further incubation was performed for 3 hours. The incubated cells were harvested, washed with PBS, suspended in PBS, and then analyzed by fluorescence-activated cell sorting (FACS; BD Accuri, USA). The cells whose fluorescence intensity exceeds the maximum intensity of untreated cells were classified as fluorescence-positive cells.

Data set [11] is described as follows: Cardiolipin binding assay, NBD fluorescence with liposomes. As for the experimental part:
To further validate specificity of CMP3013 for cardiolipin-rich membranes identified in Example 9, two model systems mimicking the inner mitochondrial membrane were constructed using POPC (1-palmitoyl-2-oleoyl-sn-glycero-3-phosphocholine) and POPE (1-palmitoyl-2-oleoyl-sn-glycero-3-phosphoethanolamine), and cardiolipin binding assays were performed using an NBD-labeled CMP3013 monomer (NBD-CMP3013m), according to the method described in Experimental Example 12.
For the association experiments, 1 μM of NBD-labeled peptide dissolved in PBS was prepared in a black 96-well plate. Liposome (POPC:POPE=2:1 or POPC:POPE=2:1, containing 10% cardiolipin) was added to the peptide until the desired concentration was achieved. The mixture of NBD-peptide and liposome was mixed well through pipetting, and then fluorescence emission of the sample was monitored (λex=467 nm, λem=536 nm).
For the association experiments depending on cardiolipin ratio, 1 μM of NBD-labeled peptide or C6-NBD dissolved in PBS was prepared in a black 96-well plate. Liposome (POPC:POPE=2:1, containing 0 to 20% cardiolipin) was added to the peptide until the desired concentration (5 μM) was achieved. This mixture was mixed well through pipetting and fluorescence emission of the sample was monitored (λex=467 nm, λem=536 nm).
For dissociation experiments, 1 μM of NBD-labeled peptide dissolved in PBS was prepared in a black 96-well plate. Liposome (POPC:POPE=2:1 or POPC:POPE=2:1, containing 10% cardiolipin) was added to the peptide until the desired concentration (100 μM) was achieved. The mixture of NBD-peptide and liposome was mixed well through pipetting and fluorescence intensity of the mixture was measured (λex=467 nm, λem=536 nm). The unlabeled peptide (acetylated peptide) was then added to the mixture and mixed well through pipetting. Incubation in the dark was performed for 10 minutes, and then changes in fluorescence intensity were monitored. Peptide addition and fluorescence measurement were repeated until the concentration of acetylated peptide reached 40 μM.

Data set [12] is described as follows: SPR binding to inner membrane model on sensor chip. As for the experimental part: The surface plasmon resonance (SPR) technique was used to determine binding ability of the peptide to liposome. Specifically, an L1 sensor chip was inserted into a Biacore™ T200 SPR system (Cytiva, USA) and then liposome was injected so that the liposome binds to the sensor chip. Subsequently, 1 μM of NBD-CMP3013m peptide was injected to check the signal intensity increased by the binding of liposome and CMP3013.
Two types of model systems mimicking the inner mitochondrial membrane were constructed using POPC and POPE according to the method described in Experimental Example 12, and NBD-labeled CMP3013 monomer (NBD-CMP3013m) and NBD-labeled SS-31 (NBD-SS-31) were used to compare and analyze their cardiolipin binding ability.
On the technique in general: In SPR one partner is held on a chip, and binding of the other changes the refractive index at the surface.

For `CC(=O)N[C@@H](CC1CCCCC1)C(=O)N[C@H]1CSSC[C@@H](C(=O)N[C@@H](CCCNC(=N)N)C(N)=O)NC(=O)[C@H](CC(C)C)NC(=O)[C@H](CCCNC(=N)N)NC(=O)[C@H](CCCNC(=N)N)NC(=O)[C@H](CC2CCCCC2)NC(=O)[C@H](CC2CCCCC2)NC(=O)[C@H](CCCNC(=N)N)NC(=O)[C@@H](NC(=O)[C@H](CC2CCCCC2)NC(C)=O)CSSC[C@@H](C(=O)N[C@@H](CCCNC(=N)N)C(N)=O)NC(=O)[C@H](CC(C)C)NC(=O)[C@H](CCCNC(=N)N)NC(=O)[C@H](CCCNC(=N)N)NC(=O)[C@H](CC2CCCCC2)NC(=O)[C@H](CC2CCCCC2)NC(=O)[C@H](CCCNC(=N)N)NC1=O` [CMP3011] (HELM PEPTIDE1{[ac].[Cha].C.R.[Cha].[Cha].R.R.L.C.R.[am]}|PEPTIDE2{[ac].[Cha].C.R.[Cha].[Cha].R.R.L.C.R.[am]}$PEPTIDE1,PEPTIDE2,3:R3-10:R3|PEPTIDE1,PEPTIDE2,10:R3-3:R3$$$V2.0), the relative cytotoxicity entry in the data set on HeLa cells [1] is on record as “relatively highest cytotoxicity”.

As for `CC(=O)N[C@@H](CC1CCCCC1)C(=O)N[C@H]1CSSC[C@@H](C(=O)N[C@@H](CCCNC(=N)N)C(N)=O)NC(=O)[C@H](CC2CCCCC2)NC(=O)[C@H](CCCNC(=N)N)NC(=O)[C@H](CCCNC(=N)N)NC(=O)[C@H](CC2CCCCC2)NC(=O)[C@H](CC(C)C)NC(=O)[C@H](CCCNC(=N)N)NC(=O)[C@@H](NC(=O)[C@H](CC2CCCCC2)NC(=O)c2ccc3c(c2)C(=O)OC32c3ccc(N(C)C)cc3Oc3cc(N(C)C)ccc32)CSSC[C@@H](C(=O)N[C@@H](CCCNC(=N)N)C(N)=O)NC(=O)[C@H](CC2CCCCC2)NC(=O)[C@H](CCCNC(=N)N)NC(=O)[C@H](CCCNC(=N)N)NC(=O)[C@H](CC2CCCCC2)NC(=O)[C@H](CC(C)C)NC(=O)[C@H](CCCNC(=N)N)NC1=O` [FL-CMP3013] (HELM PEPTIDE1{[ac].[Cha].C.R.L.[Cha].R.R.[Cha].C.R.[am]}|PEPTIDE2{[CN(C)c1ccc2c(c1)Oc1cc(N(C)C)ccc1C21OC(=O)c2cc(C(=O)[*:2])ccc21].[Cha].C.R.L.[Cha].R.R.[Cha].C.R.[am]}$PEPTIDE1,PEPTIDE2,3:R3-10:R3|PEPTIDE1,PEPTIDE2,10:R3-3:R3$$$V2.0), the “co-localization with endosomal marker” value with HeLa cells [2] was “less than 20%”. Further, the “targeting of damaged mitochondria” value in the data set with HeLa cells [3] was “co-localized more with donut-shaped or bulge-shaped mitochondria”. Moreover, the ROS production result with HeLa cells [4] was “inhibited ROS production”. In the data set with HeLa cells [5], the mitochondrial membrane potential result was “increased by FL-CMP3013 treatment in a concentration-dependent manner”. The ATP production entry with HeLa cells [6] was “resumed ATP production”. In addition, in the data set on HeLa cells [7], the “cell survival after CCCP” value is on record as “survived even after 4 hours”. Also, in the data set on HeLa cells [8], the “co-localization with Drp1” value is “co-localize perfectly with Drp1”. Further, in the data set with HeLa cells [9], the “ROS production inhibiting ability” value was “greatest inhibition of ROS production”.

Turning to “AcNH-RCRLLRRLRLCR-C(O)NH2 [LR10, peptide included in the L1L, L4L, L5L, and L8L sub-libraries, additional comparison group]”, in the data set with HeLa cells [10], the “improvement in cell penetration rate as compared with SS-31” value is recorded as “approximately 100 fold” and the “level of EC50 value (cell-penetrating ability)” value is reported as “nanomolar level of EC50 value”.

In the case of “NBD-NH-XCRLXRRXCR-C(O)NH2 [NBD-CMP3013m]”, in data set [11] (1 μM NBD-labeled peptide), the “faster binding to 10% CL liposome versus POPC/POPE liposome alone” value is listed as “approximately 10 fold” and the “greater final fluorescence intensity with 10% CL liposome versus POPC/POPE liposome alone” value is listed as 2 fold.

Take “X(dR)XKX(dR)XK [MPP1a, reference compound]”: the “level of EC50 value (cell-penetrating ability)” value in the data set with HeLa cells [10] is recorded as “micromolar level of EC50 value”.

On to “XCRLXRRXCR (Ac-[Cha]CRL[Cha]RR[Cha]CR-NH2; cysteine pairing not given here) [CMP3013m, acetyl-capped monomeric peptide, X = Cha]”, for which, in data set [11] (POPC:POPE (2:1) liposomes), the “binding to pathogenically altered membrane (5 to 10% cardiolipin, 10% DLCL)” value is reported as “can bind to a cardiolipin-damaged membrane”. Moreover, the “slower dissociation from CL-containing membrane than from cardiolipin-free membrane” value in data set [11] (competition assay with unlabeled peptide) is “approximately 10 fold”. Further, the “binding capacity for liposome membranes, CMP3013m versus SS-31” value in data set [11] (liposomes with cardiolipin or di-lysocardiolipin) was “better binding capacity for all types of membranes”. For the same compound, the “dissociation from the cardiolipin-containing membrane” value in data set [12] is recorded as “did not dissociate from the cardiolipin-containing membrane”. Moreover, the “greater response unit (RU) for membrane containing 10% cardiolipin versus POPC/POPE membrane alone” value in data set [12] (1 μM peptide) is “approximately 50%”.
